Test results: patent publication US20250320193A1, “OXOISOINDOLINYL SUBSTITUTED PIPERIDINEDIONE DERIVATIVE AND USE THEREOF” (GLUETACS THERAPEUTICS (SHANGHAI) CO., LTD., priority 2022, published 2025)

Experiments:
[1] = target: human Cereblon WT GST-tagged protein (Homo sapiens (Human), UniProt Q96SW2); experiment: CRBN-binding affinity, HTRF (CEREBLON BINDING kit, CISBIO); settings: HTRF inhibitory activity
Summary of the method: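 Compounds were mixed with GST-tagged human Cereblon WT protein, then with Thalidomide-Red tracer and GST Eu antibody, and binding was read by HTRF. Inhibition rate was calculated from 620 nm emission relative to blank control wells (no protein) and solvent control wells.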

IKZF1 = IKZF1 (Homo sapiens (Human), UniProt Q13422+Q96SW2); experiment: Western blot, substrate protein expression in hPBMC: IKZF1; assay type: cell-based; settings: hPBMC, compound 500 nM, 24 hours, Western blot
Summary of the method: (§1)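 hPBMC, 1×10^6 cells/mL, 24 h compound exposure; RIPA lysis, BCA protein assay, SDS-PAGE, NC membrane immunoblot. Densitometry vs internal control → % protein remaining; degradation % = 100% − remaining; DC50 = conc. at 50% of DMSO band signal.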

IKZF3 = IKZF3 (Homo sapiens (Human), UniProt Q96SW2+Q9UKT9); experiment: Western blot, substrate protein expression in hPBMC: IKZF3; assay type: cell-based; settings: hPBMC, compound 500 nM, 24 hours, Western blot
Summary of the method: as §1

GSPT1 = GSPT1 (Homo sapiens (Human), UniProt P15170+Q96SW2); experiment: Western blot, substrate protein expression in hPBMC: GSPT1; assay type: cell-based; settings: hPBMC, compound 500 nM, 24 hours, Western blot
Summary of the method: as §1

GSPT1, sequence (P15170 whole entry): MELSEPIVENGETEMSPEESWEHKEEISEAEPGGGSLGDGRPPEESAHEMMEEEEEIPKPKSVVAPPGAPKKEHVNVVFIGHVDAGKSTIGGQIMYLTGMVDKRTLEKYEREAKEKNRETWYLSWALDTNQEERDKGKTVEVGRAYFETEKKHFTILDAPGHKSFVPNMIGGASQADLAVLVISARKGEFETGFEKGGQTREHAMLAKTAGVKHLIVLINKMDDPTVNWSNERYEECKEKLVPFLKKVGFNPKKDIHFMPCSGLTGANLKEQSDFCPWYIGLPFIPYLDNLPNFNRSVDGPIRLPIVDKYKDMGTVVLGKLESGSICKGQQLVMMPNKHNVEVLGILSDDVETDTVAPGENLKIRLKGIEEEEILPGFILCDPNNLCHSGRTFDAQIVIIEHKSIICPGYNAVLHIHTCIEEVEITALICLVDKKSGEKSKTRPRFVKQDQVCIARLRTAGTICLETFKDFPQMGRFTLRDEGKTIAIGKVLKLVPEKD
GSPT1, sequence (Q96SW2 whole entry): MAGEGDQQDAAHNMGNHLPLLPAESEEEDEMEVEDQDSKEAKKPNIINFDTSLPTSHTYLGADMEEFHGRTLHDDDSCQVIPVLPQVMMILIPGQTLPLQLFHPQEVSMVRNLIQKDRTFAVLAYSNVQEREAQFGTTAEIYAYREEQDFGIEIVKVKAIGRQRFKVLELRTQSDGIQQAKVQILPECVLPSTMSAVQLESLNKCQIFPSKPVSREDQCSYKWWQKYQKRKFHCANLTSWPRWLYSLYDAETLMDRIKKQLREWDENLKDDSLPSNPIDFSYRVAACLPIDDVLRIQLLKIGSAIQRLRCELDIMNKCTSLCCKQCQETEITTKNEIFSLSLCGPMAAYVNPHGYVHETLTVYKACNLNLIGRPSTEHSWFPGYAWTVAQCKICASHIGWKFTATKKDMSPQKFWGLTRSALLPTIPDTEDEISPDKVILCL
GSPT1, sequence (Q16531 whole entry partner): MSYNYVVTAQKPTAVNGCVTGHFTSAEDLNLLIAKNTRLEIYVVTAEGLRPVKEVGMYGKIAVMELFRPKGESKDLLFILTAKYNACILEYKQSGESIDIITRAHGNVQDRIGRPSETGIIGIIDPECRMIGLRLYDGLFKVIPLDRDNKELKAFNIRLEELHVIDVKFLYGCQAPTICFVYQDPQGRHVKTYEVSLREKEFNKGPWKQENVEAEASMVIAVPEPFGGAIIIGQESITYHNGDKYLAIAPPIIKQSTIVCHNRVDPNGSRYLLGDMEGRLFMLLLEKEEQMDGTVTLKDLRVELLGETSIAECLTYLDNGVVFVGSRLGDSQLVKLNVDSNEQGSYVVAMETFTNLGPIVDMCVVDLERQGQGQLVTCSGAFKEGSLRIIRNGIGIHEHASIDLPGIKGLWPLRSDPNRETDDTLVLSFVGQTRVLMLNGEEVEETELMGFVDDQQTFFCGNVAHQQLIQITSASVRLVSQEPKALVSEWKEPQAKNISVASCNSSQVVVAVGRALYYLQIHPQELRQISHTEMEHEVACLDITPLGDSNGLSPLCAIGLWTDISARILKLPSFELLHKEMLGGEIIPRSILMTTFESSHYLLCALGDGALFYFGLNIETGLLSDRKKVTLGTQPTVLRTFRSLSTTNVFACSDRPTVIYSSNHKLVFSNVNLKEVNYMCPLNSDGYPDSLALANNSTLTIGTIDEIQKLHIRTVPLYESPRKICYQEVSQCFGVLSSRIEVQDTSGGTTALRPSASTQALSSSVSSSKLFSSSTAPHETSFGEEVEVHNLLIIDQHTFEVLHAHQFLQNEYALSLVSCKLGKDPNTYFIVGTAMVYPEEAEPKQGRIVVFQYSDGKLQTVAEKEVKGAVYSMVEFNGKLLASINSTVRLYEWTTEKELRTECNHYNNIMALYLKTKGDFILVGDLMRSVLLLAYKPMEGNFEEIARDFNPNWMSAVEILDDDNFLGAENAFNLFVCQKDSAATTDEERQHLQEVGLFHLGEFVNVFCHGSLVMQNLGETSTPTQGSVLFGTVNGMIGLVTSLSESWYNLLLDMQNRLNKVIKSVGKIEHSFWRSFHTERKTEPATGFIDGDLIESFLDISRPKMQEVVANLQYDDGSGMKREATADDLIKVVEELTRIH
IKZF3, sequence (Q9UKT9 whole entry): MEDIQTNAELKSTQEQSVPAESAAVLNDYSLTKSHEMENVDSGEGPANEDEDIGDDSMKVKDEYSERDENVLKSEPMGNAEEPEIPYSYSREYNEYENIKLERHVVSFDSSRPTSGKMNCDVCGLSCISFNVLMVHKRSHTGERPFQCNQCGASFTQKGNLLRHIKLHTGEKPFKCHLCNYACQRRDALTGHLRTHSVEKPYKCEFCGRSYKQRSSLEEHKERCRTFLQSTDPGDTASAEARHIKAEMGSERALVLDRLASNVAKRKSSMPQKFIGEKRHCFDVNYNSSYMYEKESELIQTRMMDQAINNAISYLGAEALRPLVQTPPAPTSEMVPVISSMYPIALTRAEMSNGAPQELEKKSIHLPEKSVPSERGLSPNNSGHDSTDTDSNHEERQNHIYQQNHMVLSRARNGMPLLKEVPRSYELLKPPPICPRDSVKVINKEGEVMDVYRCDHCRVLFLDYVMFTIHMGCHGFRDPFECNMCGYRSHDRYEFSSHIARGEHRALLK
IKZF3, sequence (Q96SW2 whole entry): as the sequence (Q96SW2 whole entry) above
IKZF3, sequence (Q16531 whole entry partner): as the sequence (Q16531 whole entry partner) above
IKZF1, sequence (Q13422 whole entry): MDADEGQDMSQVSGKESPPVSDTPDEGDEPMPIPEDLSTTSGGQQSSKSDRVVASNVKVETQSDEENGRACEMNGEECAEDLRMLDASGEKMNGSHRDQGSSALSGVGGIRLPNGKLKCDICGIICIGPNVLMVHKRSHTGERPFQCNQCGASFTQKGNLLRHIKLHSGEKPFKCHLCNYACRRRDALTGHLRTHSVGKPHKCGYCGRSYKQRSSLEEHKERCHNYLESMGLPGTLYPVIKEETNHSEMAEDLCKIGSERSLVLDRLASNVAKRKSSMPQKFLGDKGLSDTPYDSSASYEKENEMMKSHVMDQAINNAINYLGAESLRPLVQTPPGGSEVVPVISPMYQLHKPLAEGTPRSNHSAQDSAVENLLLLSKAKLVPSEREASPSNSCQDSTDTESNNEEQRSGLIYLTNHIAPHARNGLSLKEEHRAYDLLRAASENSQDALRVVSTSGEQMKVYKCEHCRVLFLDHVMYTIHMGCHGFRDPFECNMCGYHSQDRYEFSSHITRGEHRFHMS
IKZF1, sequence (Q96SW2 whole entry): as the sequence (Q96SW2 whole entry) above
IKZF1, sequence (Q16531 whole entry partner): as the sequence (Q16531 whole entry partner) above
human Cereblon WT GST-tagged protein, sequence (Q96SW2 whole entry): as the sequence (Q96SW2 whole entry) above

| SMILES | IC50 [1] | substrate protein remaining % IKZF1 (IKZF1) | substrate protein remaining % IKZF3 (IKZF3) | substrate protein remaining % GSPT1 (GSPT1) |
| --- | --- | --- | --- | --- |
| O=C1CCC(N2Cc3cc(C(=O)N4CCC(N(c5ccccc5)c5ccccc5)CC4)ccc3C2=O)C(=O)N1 (centres unmarked) [GT-05926, 3-(5-(4-(diphenylamino)piperidine-1-carbonyl)-1-oxoisoindolin-2-yl)piperidine-2,6-dione] | < 500 nM | B (B represents substrate protein remaining % > 50%) | B (B represents substrate protein remaining % > 50%) | A (A represents 0% ≤ substrate protein remaining % ≤ 50%) |
| O=C1CCC(N2Cc3c(C(=O)N4CCN(C(c5ccccc5)c5ccccn5)CC4)cccc3C2=O)C(=O)N1 (centres unmarked) [GT-05929, 3-(1-oxo-4-(4-(phenyl(pyridin-2-yl)methyl)piperazine-1-carbonyl)isoindolin-2-yl)piperidine-2,6-dione] | 500 to 1000 nM | A (A represents 0% ≤ substrate protein remaining % ≤ 50%) | A (A represents 0% ≤ substrate protein remaining % ≤ 50%) | A (A represents 0% ≤ substrate protein remaining % ≤ 50%) |
| O=C1CCC(N2Cc3c(C(=O)N4CCN(C(c5ccc(F)cc5)c5ccc(F)cc5)CC4)cccc3C2=O)C(=O)N1 (centres unmarked) [GT-05930, 3-(4-(4-(bis(4-fluorophenyl)methyl)piperazine-1-carbonyl)-1-oxoisoindolin-2-yl)piperidine-2,6-dione] | < 500 nM | B (B represents substrate protein remaining % > 50%) | B (B represents substrate protein remaining % > 50%) | A (A represents 0% ≤ substrate protein remaining % ≤ 50%) |
| O=C1CCC(N2Cc3c(ccc(CN4CCC5(CCN(C(c6ccccc6)c6ccccc6)CC5)C4)c3F)C2=O)C(=O)N1 (centres unmarked) [GT-05970, 3-(5-((8-benzhydryl-2,8-diazaspiro[4.5]decan-2-yl)methyl)-4-fluoro-1-oxoisoindolin-2-yl)piperidine-2,6-dione] | 1000 to 1900 nM | B (B represents substrate protein remaining % > 50%) | B (B represents substrate protein remaining % > 50%) | A (A represents 0% ≤ substrate protein remaining % ≤ 50%) |
| O=C1CCC(N2Cc3c(CN4CCC5(CCN(C(c6ccccc6)c6ccccc6)CC5)C4)cccc3C2=O)C(=O)N1 (centres unmarked) [GT-05973, 3-(4-((8-benzhydryl-2,8-diazaspiro[4.5]decan-2-yl)methyl)-1-oxoisoindolin-2-yl)piperidine-2,6-dione] | 1000 to 1900 nM | B (B represents substrate protein remaining % > 50%) | A (A represents 0% ≤ substrate protein remaining % ≤ 50%) | A (A represents 0% ≤ substrate protein remaining % ≤ 50%) |
| O=C1CCC(N2Cc3cc(C(=O)N4CC5CCC(C4)N5C(c4ccccc4)c4ccccc4)ccc3C2=O)C(=O)N1 (centres unmarked) [GT-05980, 3-(5-(8-benzhydryl-3,8-diazabicyclo[3.2.1]octane-3-carbonyl)-1-oxoisoindolin-2-yl)piperidine-2,6-dione] | 500 to 1000 nM | A (A represents 0% ≤ substrate protein remaining % ≤ 50%) | B (B represents substrate protein remaining % > 50%) | A (A represents 0% ≤ substrate protein remaining % ≤ 50%) |
| O=C1CCC(N2Cc3cc(C(=O)N4CCN(C5c6ccccc6-c6ccccc65)CC4)ccc3C2=O)C(=O)N1 (centres unmarked) [GT-05986, 3-(5-(4-(9H-fluoren-9-yl)piperazine-1-carbonyl)-1-oxoisoindolin-2-yl)piperidine-2,6-dione] | < 500 nM | B (B represents substrate protein remaining % > 50%) | B (B represents substrate protein remaining % > 50%) | A (A represents 0% ≤ substrate protein remaining % ≤ 50%) |
| O=C1CCC(N2Cc3cc(C(=O)N4CC5(CCN(C(c6ccccc6)c6ccccc6)CC5)C4)ccc3C2=O)C(=O)N1 (centres unmarked) [GT-05988, 3-(5-(7-benzhydryl-2,7-diazaspiro[3.5]nonane-2-carbonyl)-1-oxoisoindolin-2-yl)piperidine-2,6-dione] | < 500 nM | B (B represents substrate protein remaining % > 50%) | B (B represents substrate protein remaining % > 50%) | A (A represents 0% ≤ substrate protein remaining % ≤ 50%) |

More lines, main results first:

| IC50 [1] | SMILES | substrate protein remaining % IKZF1 (IKZF1) | substrate protein remaining % IKZF3 (IKZF3) | substrate protein remaining % GSPT1 (GSPT1) |
| --- | --- | --- | --- | --- |
| < 500 nM | O=C1CCC(N2Cc3cc(C(=O)N4CCC(N(c5ccccc5)c5ccccc5)CC4)cc(F)c3C2=O)C(=O)N1 (centres unmarked) [GT-05927, 3-(5-(4-(diphenylamino)piperidine-1-carbonyl)-7-fluoro-1-oxoisoindolin-2-yl)piperidine-2,6-dione] | B (B represents substrate protein remaining % > 50%) | B (B represents substrate protein remaining % > 50%) | A (A represents 0% ≤ substrate protein remaining % ≤ 50%) |
| 1000 to 1900 nM | CC1(C)CN(Cc2cc3c(cc2F)C(=O)N(C2CCC(=O)NC2=O)C3)CCN1C(c1ccccc1)c1ccccc1 (centres unmarked) [GT-05960, 3-(5-((4-benzhydryl-3,3-dimethylpiperazin-1-yl)methyl)-6-fluoro-1-oxoisoindolin-2-yl)piperidine-2,6-dione] | B (B represents substrate protein remaining % > 50%) | A (A represents 0% ≤ substrate protein remaining % ≤ 50%) | A (A represents 0% ≤ substrate protein remaining % ≤ 50%) |
| 500 to 1000 nM | CC1(C)CN(Cc2cc(F)c3c(c2)CN(C2CCC(=O)NC2=O)C3=O)CCN1C(c1ccccc1)c1ccccc1 (centres unmarked) [GT-05961, 3-(5-((4-benzhydryl-3,3-dimethylpiperazin-1-yl)methyl)-7-fluoro-1-oxoisoindolin-2-yl)piperidine-2,6-dione] | B (B represents substrate protein remaining % > 50%) | A (A represents 0% ≤ substrate protein remaining % ≤ 50%) | A (A represents 0% ≤ substrate protein remaining % ≤ 50%) |
| 500 to 1000 nM | O=C1CCC(N2Cc3cc(CN4CC5CCC4CN5C(c4ccccc4)c4ccccc4)c(F)cc3C2=O)C(=O)N1 (centres unmarked) [GT-05963, 3-(5-((5-benzhydryl-2,5-diazabicyclo[2.2.2]octan-2-yl)methyl)-6-fluoro-1-oxoisoindolin-2-yl)piperidine-2,6-dione] | B (B represents substrate protein remaining % > 50%) | B (B represents substrate protein remaining % > 50%) | A (A represents 0% ≤ substrate protein remaining % ≤ 50%) |
| 1000 to 1900 nM | CC1CN(Cc2ccc3c(c2F)CN(C2CCC(=O)NC2=O)C3=O)CC(C)N1C(c1ccccc1)c1ccccc1 (centres unmarked) [GT-05965, 3-(5-((4-benzhydryl-3,5-dimethylpiperazin-1-yl)methyl)-4-fluoro-1-oxoisoindolin-2-yl)piperidine-2,6-dione] | A (A represents 0% ≤ substrate protein remaining % ≤ 50%) | A (A represents 0% ≤ substrate protein remaining % ≤ 50%) | A (A represents 0% ≤ substrate protein remaining % ≤ 50%) |
| 1000 to 1900 nM | CC1CN(Cc2cc3c(cc2F)C(=O)N(C2CCC(=O)NC2=O)C3)CC(C)N1C(c1ccccc1)c1ccccc1 (centres unmarked) [GT-05966, 3-(5-((4-benzhydryl-3,5-dimethylpiperazin-1-yl)methyl)-6-fluoro-1-oxoisoindolin-2-yl)piperidine-2,6-dione] | B (B represents substrate protein remaining % > 50%) | B (B represents substrate protein remaining % > 50%) | A (A represents 0% ≤ substrate protein remaining % ≤ 50%) |
| 1000 to 1900 nM | CC1CN(Cc2cc(F)c3c(c2)CN(C2CCC(=O)NC2=O)C3=O)CC(C)N1C(c1ccccc1)c1ccccc1 (centres unmarked) [GT-05967, 3-(5-((4-benzhydryl-3,5-dimethylpiperazin-1-yl)methyl)-7-fluoro-1-oxoisoindolin-2-yl)piperidine-2,6-dione] | B (B represents substrate protein remaining % > 50%) | A (A represents 0% ≤ substrate protein remaining % ≤ 50%) | A (A represents 0% ≤ substrate protein remaining % ≤ 50%) |
| 1000 to 1900 nM | O=C1CCC(N2Cc3cc(CN4CCC5(CCN(C(c6ccccc6)c6ccccc6)CC5)C4)c(F)cc3C2=O)C(=O)N1 (centres unmarked) [GT-05971, 3-(5-((8-benzhydryl-2,8-diazaspiro[4.5]decan-2-yl)methyl)-6-fluoro-1-oxoisoindolin-2-yl)piperidine-2,6-dione] | B (B represents substrate protein remaining % > 50%) | B (B represents substrate protein remaining % > 50%) | A (A represents 0% ≤ substrate protein remaining % ≤ 50%) |
| < 500 nM | O=C1CCC(N2C(=O)c3ccc(N4CC5CCC4CN5C(c4ccccc4)c4ccccc4)cc3C2=O)C(=O)N1 (centres unmarked) [GT-05976, 5-(5-benzhydryl-2,5-diazabicyclo[2.2.2]octan-2-yl)-2-(2,6-dioxopiperidin-3-yl) isoindoline-1,3-dione] | B (B represents substrate protein remaining % > 50%) | B (B represents substrate protein remaining % > 50%) | A (A represents 0% ≤ substrate protein remaining % ≤ 50%) |
